From ChEMBL document CHEMBL1201862, “PubChem BioAssay data set” (2004)
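Values below derive from 48-hour exposures of cells grown in 96-well plates, with endpoints linearly interpolated between the two concentrations bracketing the appropriate inhibition level. Abbreviation: GI50, concentration required for 50% inhibition of growth.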 The source made the active and inactive calls. Cut-off read from the data, not from the text of the source: active = GI50 up to about 1.1 µM and inactive = higher.

Key:
Assay in all cases: NCI anticancer screen, dose series, 48 h
RPMI-8226 = test system: RPMI-8226
HOP-62 = test system: HOP-62
SK-OV-3 = test system: SK-OV-3
NCI-H522 = test system: NCI-H522
M14 = test system: M14
U-251 = test system: U-251
DMS-273 = test system: DMS-273
UO-31 = test system: UO-31
HCC 2998 = test system: HCC 2998
KM12 = test system: KM12
ACHN = test system: ACHN
A498 = test system: A498
SNB-19 = test system: SNB-19
COLO 205 = test system: COLO 205
HOP-92 = test system: HOP-92
NCI-H23 = test system: NCI-H23
DU-145 = test system: DU-145
PC-3 = test system: PC-3
MDA-MB-435 = test system: MDA-MB-435
MDA-MB-231 = test system: MDA-MB-231

Measured: GI50

CCOC(=O)C1=C(C)N(NC(=O)c2ccccc2)C2(O)CCCC12C(=O)OCC (configuration not stated)
inactive: RPMI-8226 > 100 µM | HOP-62 > 100 µM | SK-OV-3 > 100 µM | NCI-H522 > 100 µM | M14 > 100 µM | U-251 > 100 µM | DMS-273 > 100 µM | UO-31 > 100 µM | HCC 2998 > 100 µM | KM12 > 100 µM | ACHN > 100 µM | A498 > 100 µM | SNB-19 > 100 µM

CN(C)C(=C1C(Br)=C(Br)C(Br)=C1Br)N(C)C
inactive: COLO 205 > 100 µM | RPMI-8226 22.7 µM | HOP-62 > 100 µM | SK-OV-3 > 100 µM | NCI-H522 17.5 µM | HOP-92 > 100 µM | M14 > 100 µM | U-251 > 100 µM | DMS-273 > 100 µM | UO-31 > 100 µM | HCC 2998 > 100 µM | KM12 > 100 µM | ACHN > 100 µM | NCI-H23 > 100 µM

CC1=NN(C(=O)Cc2ccccc2)C(=O)/C1=C\C=C\c1ccccc1
inactive: COLO 205 > 100 µM | RPMI-8226 > 100 µM | HOP-62 > 100 µM | NCI-H522 > 100 µM | M14 > 100 µM | DMS-273 > 100 µM | UO-31 > 100 µM | HCC 2998 > 100 µM | KM12 > 100 µM | ACHN > 100 µM | NCI-H23 > 100 µM | SNB-19 > 100 µM

CON1C(=O)C2(CCCCC2)C(=O)C12C=CC(C)CC2 (configuration not stated)
inactive: COLO 205 > 100 µM | RPMI-8226 72.3 µM | HOP-62 > 100 µM | SK-OV-3 > 100 µM | NCI-H522 95.1 µM | M14 > 100 µM | U-251 > 100 µM | DMS-273 > 100 µM | UO-31 47.4 µM | HCC 2998 > 100 µM | KM12 > 100 µM | A498 > 100 µM | NCI-H23 > 100 µM | SNB-19 > 100 µM

CC1(C)CCc2cc3c(cc2O1)OC(C)(C)C1c2c(ccc4c2CCC(C)(C)O4)OC31 (configuration not stated)
inactive: COLO 205 > 100 µM | RPMI-8226 > 100 µM | HOP-62 > 100 µM | SK-OV-3 > 100 µM | NCI-H522 > 100 µM | HOP-92 > 100 µM | M14 42.9 µM | U-251 > 100 µM | DMS-273 > 100 µM | UO-31 > 100 µM | KM12 > 100 µM | ACHN > 100 µM | NCI-H23 > 100 µM

CCOC(=O)C(NC(=O)c1nc[nH]c1/N=N/N(C)C)C(C)C (configuration not stated)
inactive: COLO 205 > 100 µM | RPMI-8226 > 100 µM | HOP-62 > 100 µM | SK-OV-3 > 100 µM | NCI-H522 > 100 µM | M14 > 100 µM | U-251 40.8 µM | DMS-273 > 100 µM | UO-31 > 100 µM | HCC 2998 > 100 µM | KM12 > 100 µM | ACHN > 100 µM | A498 > 100 µM | NCI-H23 > 100 µM | SNB-19 > 100 µM

Oc1cc(-c2c[nH]c3ccccc23)nc2cc3c(cc12)OCO3
inactive: COLO 205 > 100 µM | RPMI-8226 > 100 µM | HOP-62 84.3 µM | M14 > 100 µM | U-251 > 100 µM | DMS-273 > 100 µM | UO-31 > 100 µM | HCC 2998 > 100 µM | ACHN > 100 µM | A498 > 100 µM | NCI-H23 > 100 µM | SNB-19 > 100 µM

O=c1ccn(C2(CO)C=C(CO)C(O)C2O)c(=O)[nH]1 (configuration not stated)
inactive: COLO 205 > 25.7 µM | RPMI-8226 > 25.7 µM | HOP-62 > 25.7 µM | SK-OV-3 > 25.7 µM | NCI-H522 > 25.7 µM | M14 > 25.7 µM | U-251 > 25.7 µM | DMS-273 > 25.7 µM | UO-31 > 25.7 µM | HCC 2998 > 25.7 µM | KM12 > 25.7 µM | ACHN > 25.7 µM | A498 > 25.7 µM | SNB-19 > 25.7 µM

C1=CC=C2NCCOCC/N=C3/C=CC=CC=C3NCCOCC/N=C\2C=C1
inactive: COLO 205 45 µM | RPMI-8226 45.7 µM | HOP-62 > 100 µM | SK-OV-3 > 100 µM | NCI-H522 > 100 µM | M14 17.8 µM | U-251 > 100 µM | DMS-273 > 100 µM | UO-31 > 100 µM | HCC 2998 67.1 µM | KM12 66.2 µM | ACHN > 100 µM | A498 > 100 µM | NCI-H23 > 100 µM | SNB-19 > 100 µM

Cc1c(-c2ccccc2)c(C#N)c2nnn(-c3ccccc3)c(=O)n12
inactive: DU-145 > 100 µM | PC-3 78.9 µM | COLO 205 54.1 µM | MDA-MB-435 > 100 µM | RPMI-8226 > 100 µM | MDA-MB-231 > 100 µM | HOP-62 44.2 µM | SK-OV-3 > 100 µM | NCI-H522 44.9 µM | HOP-92 > 100 µM | M14 67.1 µM | U-251 48.8 µM | UO-31 > 100 µM | HCC 2998 99.8 µM | KM12 75.7 µM | ACHN 76.4 µM | A498 65.8 µM | NCI-H23 > 100 µM | SNB-19 > 100 µM

Cc1noc2nnn(-c3ccc(Cl)cc3)c(=O)c12
active: RPMI-8226 0.36 µM | NCI-H522 0.5 µM
inactive: DU-145 3.72 µM | PC-3 3.71 µM | COLO 205 2.96 µM | MDA-MB-435 2.95 µM | MDA-MB-231 8.95 µM | HOP-62 12.8 µM | SK-OV-3 5.52 µM | HOP-92 6.4 µM | M14 11.8 µM | U-251 4.92 µM | UO-31 3.61 µM | HCC 2998 2.15 µM | KM12 11.7 µM | ACHN 3.59 µM | A498 13.5 µM | NCI-H23 4.75 µM | SNB-19 13.3 µM

O/N=C1/COC(C(F)(F)F)(C(F)(F)F)C1
inactive: DU-145 > 100 µM | PC-3 > 100 µM | COLO 205 > 100 µM | MDA-MB-435 > 100 µM | RPMI-8226 > 100 µM | MDA-MB-231 > 100 µM | HOP-62 > 100 µM | SK-OV-3 > 100 µM | NCI-H522 > 100 µM | HOP-92 > 100 µM | M14 > 100 µM | U-251 > 100 µM | UO-31 > 100 µM | HCC 2998 > 100 µM | KM12 > 100 µM | ACHN > 100 µM | A498 > 100 µM | NCI-H23 > 100 µM | SNB-19 > 100 µM

COc1ccc([C@]23CCN(S(=O)(=O)c4ccc(C)cc4)[C@H]2[C@H](CO)C2(CC3)OCC(C)(C)CO2)cc1OC
inactive: DU-145 > 100 µM | PC-3 > 100 µM | COLO 205 > 100 µM | MDA-MB-435 > 100 µM | RPMI-8226 > 100 µM | MDA-MB-231 > 100 µM | HOP-62 > 100 µM | SK-OV-3 > 100 µM | NCI-H522 > 100 µM | HOP-92 > 100 µM | M14 > 100 µM | U-251 > 100 µM | UO-31 > 100 µM | HCC 2998 > 100 µM | KM12 > 100 µM | ACHN > 100 µM | A498 > 100 µM | NCI-H23 > 100 µM | SNB-19 > 100 µM

S=c1nc2c(c[nH]1)C1c3ccccc3C2c2ccccc21
inactive: COLO 205 88.7 µM | RPMI-8226 35.9 µM | HOP-62 > 100 µM | NCI-H522 46 µM | M14 79.8 µM | U-251 91.2 µM | DMS-273 > 100 µM | UO-31 39.5 µM | KM12 44.1 µM | ACHN 61.2 µM | NCI-H23 > 100 µM | SNB-19 82.4 µM

C/C(=N\N(C)C)C(CN1CCCCC1)C(c1ccccc1)c1c(O)c2ccccc2oc1=O (configuration not stated)
inactive: COLO 205 > 100 µM | RPMI-8226 > 100 µM | HOP-62 > 100 µM | SK-OV-3 97.5 µM | NCI-H522 > 100 µM | M14 > 100 µM | U-251 > 100 µM | DMS-273 > 100 µM | UO-31 32.6 µM | KM12 > 100 µM | ACHN > 100 µM | A498 > 100 µM | NCI-H23 > 100 µM | SNB-19 > 100 µM

O=[N+]([O-])c1ccc(/C(=C\c2ccccc2)Cn2ccnc2)cc1
inactive: DU-145 60 µM | PC-3 24.8 µM | COLO 205 15 µM | MDA-MB-435 34.4 µM | RPMI-8226 28.9 µM | MDA-MB-231 13.1 µM | HOP-62 54.1 µM | SK-OV-3 38.4 µM | NCI-H522 20 µM | HOP-92 18.9 µM | M14 36.9 µM | U-251 33.3 µM | UO-31 13.6 µM | HCC 2998 68.7 µM | KM12 33 µM | ACHN 29.8 µM | A498 20.9 µM | NCI-H23 26.5 µM | SNB-19 57.9 µM

NCCCN1CCN(CC(=O)O)CCN(CCCN)CCN(CC(=O)O)CC1
inactive: DU-145 > 100 µM | PC-3 > 45.1 µM | COLO 205 33.7 µM | MDA-MB-435 > 100 µM | RPMI-8226 17.4 µM | MDA-MB-231 > 100 µM | HOP-62 > 100 µM | SK-OV-3 > 92 µM | NCI-H522 24.7 µM | HOP-92 > 100 µM | M14 82.6 µM | U-251 > 100 µM | UO-31 > 34.3 µM | HCC 2998 19.5 µM | KM12 28.3 µM | ACHN > 100 µM | A498 > 100 µM | NCI-H23 > 100 µM | SNB-19 > 100 µM
